According to patent publication EP0508792A1, “Anti-tumor and anti-psoriatic agents” (SCHERING CORPORATION, priority 1991, dated 1992):

biological target: PKC; experiment: Mixed micellar protein kinase C (PKC) assay, in vitro inhibition of PKC; format: biochemical; conditions: partially purified rat brain PKC; histone III-S substrate; 23°C, 15 minutes; 2% DMSO
Description: The below listed Test Methods A and B were run in accordance with the procedures described in Bishop, W.R., Petrin, J., Wang, L., Ramesh, U., and Doll, R.J. (1990) Biochemical Pharmacology 40: No. 9, pp. 2129-2135 and Hannun et al, J. Biol. Chem. 260, 10039-10043, (1985), which are herein incorporated by reference.The following modifications were made in this procedure:
A. Protein Kinase C ("PKC") Protocol
Mixed micellular protein kinase C assays were conducted by the methods described in the two articles cited just above, (namely, Bishop et al, and Hannun et al), in a reaction mixture (0.25 mL total volume) containing: 20 mM Tris-HCl (pH 7.5); […] histone III-S; 10 mM MgCl2; 5 mM [g-32P]ATP (4 x 10^6 cpm/nmol); […] CaCl2; 32 mg/mL of phosphatidylserine; […] of 1-oleoyl-2-acetyl-glycerol and various concentrations of compounds of this invention added from a dimethyl-sulfoxide (DMSO) stock solution. The final concentration of DMSO in the reaction was 2% w/v. Reactions were started by addition of approximately […] of partially purified rat brain PKC and allowed to proceed at 23°C for 15 minutes. Reactions were terminated by collection of trichloroacetic acid-precipitated phosphorylated histone on GF/C filters using a Brandel Cell Harvester (Model No. M-24-R).

SMILES | IC50
CN(C)C[C@@H]1C[C@@H]2O[C@H]1n1c3ccccc3c3c4c(c5c6ccccc6n2c5c31)C(=O)NC4=O (relative stereo) [Example 49] | 4 nM
Cc1ccc2c(c1)c1c(C#N)c(C#N)c3c4cc(C)ccc4n4c3c1n2[C@@H]1CC[C@H]4O1 [Example 28] | 58 nM
CN(C)C(=O)[C@@H]1C[C@@H]2O[C@H]1n1c3ccccc3c3c4c(c5c6ccccc6n2c5c31)C(=O)NC4=O (relative stereo) [Example 68] | 1 nM
CS(=O)(=O)OC[C@H]1C[C@@H]2O[C@H]1n1c3ccccc3c3c4c(c5c6ccccc6n2c5c31)C(=O)NC4=O (relative stereo) [Example 39] | 5 nM
O=C1NC(=O)c2c1c1c3ccccc3n3c1c1c2c2ccccc2n1[C@@H]1O[C@H]3C[C@@H]1CO (relative stereo) [Example 35] | 7.5 nM
Cc1ccc2c(c1)c1c3c(c4c5cc(C)ccc5n5c4c1n2[C@@H]1C[C@H](CO)[C@H]5O1)C(=O)NC3=O (relative stereo) [Example 58] | 23 nM
Cc1ccc2c(c1)c1c3c(c4c5cc(C)ccc5n5c4c1n2[C@@H]1CC[C@H]5O1)C(=O)NC3=O [Example 30] | 50 nM
NC(=O)[C@H]1C[C@@H]2O[C@H]1n1c3ccccc3c3c4c(c5c6ccccc6n2c5c31)C(=O)NC4=O (relative stereo) [Example 37] | 115 nM
CC(C)(C)OC(=O)CNC(=O)[C@@H]1C[C@@H]2O[C@H]1n1c3ccccc3c3c4c(c5c6ccccc6n2c5c31)C(=O)NC4=O (relative stereo) [Example 64] | 19 nM
O=C(NC[C@@H]1C[C@@H]2O[C@H]1n1c3ccccc3c3c4c(c5c6ccccc6n2c5c31)C(=O)NC4=O)c1ccccc1 (relative stereo) [Example 46] | 230 nM
O=C1NC(=O)c2c1c1c3ccccc3n3c1c1c2c2ccccc2n1[C@@H]1O[C@H]3C[C@H]1CO (relative stereo) [Example 36] | 10 nM
O=C1NC(O)c2c1c1c3ccccc3n3c1c1c2c2ccccc2n1[C@H]1CC[C@@H]3O1 (stereo partly drawn) [Example 26] | 19 nM
S=C1NC(=S)c2c1c1c3ccccc3n3c1c1c2c2ccccc2n1[C@H]1CC[C@@H]3O1 [Example 25] | 13 nM
O=C1NC(=O)c2c1c1c3ccccc3n3c1c1c2c2ccccc2n1[C@@H]1O[C@H]3C[C@H]1C(=O)O (relative stereo) [Example 63] | 20 nM
Cc1ccc2c(c1)c1c3c(c4c5cc(C)ccc5n5c4c1n2[C@@H]1CC[C@H]5O1)C(=N)NC3=O (relative stereo) [Example 29] | 42 nM
NC(=O)[C@@H]1C[C@@H]2O[C@H]1n1c3ccccc3c3c4c(c5c6ccccc6n2c5c31)C(=O)NC4=O (relative stereo) [Example 67] | 0.6 nM
CS(=O)(=O)OC[C@@H]1C[C@@H]2O[C@H]1n1c3ccccc3c3c4c(c5c6ccccc6n2c5c31)C(=O)NC4=O (relative stereo) [Example 40] | 15 nM
CNC(=O)[C@@H]1C[C@@H]2O[C@H]1n1c3ccccc3c3c4c(c5c6ccccc6n2c5c31)C(=O)NC4=O (relative stereo) [Example 65] | 0.5 nM
CO[C@H]1C[C@@H]2O[C@H]1n1c3ccccc3c3c4c(c5c6ccccc6n2c5c31)C(=O)NC4=O (relative stereo) [Example 38] | 1.4 nM
[N-]=[N+]=NC[C@H]1C[C@@H]2O[C@H]1n1c3ccccc3c3c4c(c5c6ccccc6n2c5c31)C(=O)NC4=O (relative stereo) [Example 41] | 7.5 nM
NC[C@@H]1C[C@@H]2O[C@H]1n1c3ccccc3c3c4c(c5c6ccccc6n2c5c31)C(=O)NC4=O (relative stereo) [Example 45] | 13 nM
O=C1NC(=O)c2c1c1c3ccccc3n3c1c1c2c2ccccc2n1[C@@H]1O[C@H]3C[C@H]1Cn1ccnc1 (relative stereo) [Example 48] | 7 nM
Cc1ccc2c(c1)c1c3c(c4c5cc(C)ccc5n5c4c1n2[C@@H]1C[C@@H](CO)[C@H]5O1)C(=O)NC3=O (relative stereo) [Example 57] | 23 nM
Cc1ccc2c(c1)c1c(Br)c(Br)c3c4cc(C)ccc4n4c3c1n2[C@@H]1CC[C@H]4O1 [Example 27] | 18 nM
O=C(O)CNC(=O)[C@@H]1C[C@@H]2O[C@H]1n1c3ccccc3c3c4c(c5c6ccccc6n2c5c31)C(=O)NC4=O (relative stereo) [Example 69] | 0.8 nM
O=C1NC(=O)c2c1c1c3ccccc3n3c1c1c2c2ccccc2n1[C@@H]1O[C@H]3C[C@H]1C(=O)NCc1ccccc1 (relative stereo) [Example 66] | 20 nM

test system: Normal Human Keratinocytes (NHEK); experiment: 3H thymidine uptake in normal human keratinocytes (NHEK); format: cell-based; conditions: Homo sapiens, 20 h; dose response study, 3H thymidine uptake in NHEK; read-out: IC₅₀
Description: ^3H Thymidine Uptake in Normal Human Keratinocytes (NHEK): Effects of Compounds of the Invention
Second passage NHEK cells grown in MCDB 153 media with a 5% CO2 air mixture at 37° were used for experiments. Compounds of the invention which were tested were prepared at 5mM stock solutions in DMSO. Cells were grown to 60-80% confluency in 6 well trays. Compounds were added to give a concentration of 5x10⁻⁶ molar and cultures were simultaneously pulsed with 1 microCurie/mL ^3H thymidine for 20 hours. Cells were then harvested and tritium was counted using a liquid scintillation counter; results are the average of 8 wells per compound. In the control, when no compound is employed, there is 0% inhibition of thymidine uptake.
A dose response study of the compound from Example 35, using the just above described test was conducted. Concentrations of the compound from Example 35 ranging from 5x10⁻⁵ to 5x10⁻⁶ M in tenfold dilutions were conducted.

SMILES | IC50
O=C1NC(=O)c2c1c1c3ccccc3n3c1c1c2c2ccccc2n1[C@@H]1O[C@H]3C[C@@H]1CO (relative stereo) [Example 35] | 1720 nM

same assay, conditions: compound at 5x10⁻⁶ molar; 3H thymidine pulse 20 hours; average of 8 wells

SMILES | % Inhibition of Control
O=C1NC(=O)c2c1c1c3ccccc3n3c1c1c2c2ccccc2n1[C@@H]1O[C@H]3C[C@@H]1CO (relative stereo) [Example 35] | 99.2%
O=C1NCc2c1c1c3ccccc3n3c1c1c2c2ccccc2n1C1CCC3O1 (racemic) [Example 23] | 78.8%
O=C1NC(=O)c2c1c1c3ccccc3n3c1c1c2c2ccccc2n1[C@H]1CC[C@@H]3O1 [Example 22] | 77.3%
